Measured values reported in the NIST ThermoML archive (doi:10.1016/j.fluid.2015.03.012).
± gives the expanded uncertainty stated by the source.

Experiment: mn = molality of the nth substance listed, in mol/kg
Conditions: Survismeter

Which surface tension liquid-gas (293.15 K, m1 = 0.001) does the source give for `C[C@H](CCC(=O)[O-])[C@H]1CC[C@H]2[C@@H]3CC[C@@H]4C[C@H](O)CC[C@]4(C)[C@H]3C[C@H](O)[C@]12C.[Na+]` [sodium deoxycholate] + O here?
Its surface tension liquid-gas is 58.04 ± 1.2 mN/m.

And the surface tension liquid-gas (293.15 K, m1 = 0.002)?
The surface tension liquid-gas was 55.17 ± 1 mN/m.

What about the surface tension liquid-gas (293.15 K, m1 = 0.003) of the same compound?
Its surface tension liquid-gas is 53.42 ± 1 mN/m.

And the surface tension liquid-gas (293.15 K, m1 = 0.004)?
Its surface tension liquid-gas is 50.47 ± 1.1 mN/m.

What about the surface tension liquid-gas (293.15 K, m1 = 0.005) of the same compound?
Its surface tension liquid-gas is 48.29 ± 0.93 mN/m.

And the surface tension liquid-gas (293.15 K, m1 = 0.006)?
Its surface tension liquid-gas is 46.29 ± 0.73 mN/m.

And the surface tension liquid-gas (293.15 K, m1 = 0.007)?
Its surface tension liquid-gas is 45.25 ± 0.44 mN/m.

And the surface tension liquid-gas (293.15 K, m1 = 0.009)?
Its surface tension liquid-gas is 44.86 ± 0.41 mN/m.

And the surface tension liquid-gas (293.15 K, m1 = 0.011)?
Its surface tension liquid-gas is 44.66 ± 0.4 mN/m.

What about the surface tension liquid-gas (293.15 K, m1 = 0.013) of the same compound?
Its surface tension liquid-gas is 44.87 ± 0.4 mN/m.

And the surface tension liquid-gas (293.15 K, m1 = 0.015)?
Its surface tension liquid-gas is 45.08 ± 0.4 mN/m.

And the surface tension liquid-gas (293.15 K, m1 = 0.017)?
The surface tension liquid-gas was 44.89 ± 0.4 mN/m.

And the surface tension liquid-gas (298.15 K, m1 = 0.001)?
Its surface tension liquid-gas is 55.92 ± 1.2 mN/m.

What about the surface tension liquid-gas (298.15 K, m1 = 0.002) of the same compound?
The surface tension liquid-gas was 53.25 ± 1 mN/m.

What about the surface tension liquid-gas (298.15 K, m1 = 0.003) of the same compound?
Its surface tension liquid-gas is 51.34 ± 1 mN/m.

What about the surface tension liquid-gas (298.15 K, m1 = 0.004) of the same compound?
The surface tension liquid-gas was 48.6 ± 1.1 mN/m.

And the surface tension liquid-gas (298.15 K, m1 = 0.005)?
The surface tension liquid-gas was 46.35 ± 0.81 mN/m.

What about the surface tension liquid-gas (298.15 K, m1 = 0.006) of the same compound?
The surface tension liquid-gas was 45.1 ± 0.52 mN/m.

What about the surface tension liquid-gas (298.15 K, m1 = 0.007) of the same compound?
The surface tension liquid-gas was 44.7 ± 0.4 mN/m.

And the surface tension liquid-gas (298.15 K, m1 = 0.009)?
The surface tension liquid-gas was 44.51 ± 0.4 mN/m.

And the surface tension liquid-gas (298.15 K, m1 = 0.011)?
The surface tension liquid-gas was 44.32 ± 0.4 mN/m.

What about the surface tension liquid-gas (298.15 K, m1 = 0.013) of the same compound?
Its surface tension liquid-gas is 44.53 ± 0.4 mN/m.

What about the surface tension liquid-gas (298.15 K, m1 = 0.015) of the same compound?
Its surface tension liquid-gas is 44.73 ± 0.4 mN/m.

What about the surface tension liquid-gas (298.15 K, m1 = 0.017) of the same compound?
The surface tension liquid-gas was 44.54 ± 0.4 mN/m.

What about the surface tension liquid-gas (303.15 K, m1 = 0.001) of the same compound?
Its surface tension liquid-gas is 54.2 ± 1.3 mN/m.

What about the surface tension liquid-gas (303.15 K, m1 = 0.002) of the same compound?
The surface tension liquid-gas was 51.68 ± 0.95 mN/m.

And the surface tension liquid-gas (303.15 K, m1 = 0.003)?
Its surface tension liquid-gas is 49.87 ± 0.93 mN/m.

And the surface tension liquid-gas (303.15 K, m1 = 0.004)?
Its surface tension liquid-gas is 47.5 ± 0.84 mN/m.

What about the surface tension liquid-gas (303.15 K, m1 = 0.005) of the same compound?
Its surface tension liquid-gas is 46.18 ± 0.62 mN/m.

And the surface tension liquid-gas (303.15 K, m1 = 0.006)?
Its surface tension liquid-gas is 45.13 ± 0.52 mN/m.

And the surface tension liquid-gas (303.15 K, m1 = 0.007)?
Its surface tension liquid-gas is 44.53 ± 0.41 mN/m.

What about the surface tension liquid-gas (303.15 K, m1 = 0.009) of the same compound?
Its surface tension liquid-gas is 44.34 ± 0.4 mN/m.

What about the surface tension liquid-gas (303.15 K, m1 = 0.011) of the same compound?
Its surface tension liquid-gas is 44.16 ± 0.4 mN/m.

What about the surface tension liquid-gas (303.15 K, m1 = 0.013) of the same compound?
The surface tension liquid-gas was 44.16 ± 0.4 mN/m.

And the surface tension liquid-gas (303.15 K, m1 = 0.015)?
Its surface tension liquid-gas is 44.17 ± 0.4 mN/m.

What about the surface tension liquid-gas (303.15 K, m1 = 0.017) of the same compound?
Its surface tension liquid-gas is 44.18 ± 0.4 mN/m.

What about the surface tension liquid-gas (308.15 K, m1 = 0.001) of the same compound?
The surface tension liquid-gas was 54.06 ± 1.1 mN/m.

And the surface tension liquid-gas (308.15 K, m1 = 0.002)?
Its surface tension liquid-gas is 51.56 ± 0.95 mN/m.

What about the surface tension liquid-gas (308.15 K, m1 = 0.003) of the same compound?
The surface tension liquid-gas was 49.77 ± 0.96 mN/m.

What about the surface tension liquid-gas (308.15 K, m1 = 0.004) of the same compound?
The surface tension liquid-gas was 47.19 ± 0.87 mN/m.

And the surface tension liquid-gas (308.15 K, m1 = 0.005)?
Its surface tension liquid-gas is 45.89 ± 0.61 mN/m.

And the surface tension liquid-gas (308.15 K, m1 = 0.006)?
The surface tension liquid-gas was 44.86 ± 0.52 mN/m.

And the surface tension liquid-gas (308.15 K, m1 = 0.007)?
The surface tension liquid-gas was 44.27 ± 0.42 mN/m.

And the surface tension liquid-gas (308.15 K, m1 = 0.009)?
Its surface tension liquid-gas is 43.89 ± 0.4 mN/m.

What about the surface tension liquid-gas (308.15 K, m1 = 0.011) of the same compound?
The surface tension liquid-gas was 44.09 ± 0.4 mN/m.

And the surface tension liquid-gas (308.15 K, m1 = 0.013)?
The surface tension liquid-gas was 43.9 ± 0.4 mN/m.

And the surface tension liquid-gas (308.15 K, m1 = 0.015)?
The surface tension liquid-gas was 44.1 ± 0.4 mN/m.

And the surface tension liquid-gas (308.15 K, m1 = 0.017)?
Its surface tension liquid-gas is 44.3 ± 0.4 mN/m.

And the surface tension liquid-gas (313.15 K, m1 = 0.001)?
Its surface tension liquid-gas is 54.23 ± 1 mN/m.

What about the surface tension liquid-gas (313.15 K, m1 = 0.002) of the same compound?
The surface tension liquid-gas was 51.75 ± 0.9 mN/m.

And the surface tension liquid-gas (313.15 K, m1 = 0.003)?
The surface tension liquid-gas was 50.21 ± 0.92 mN/m.

And the surface tension liquid-gas (313.15 K, m1 = 0.004)?
The surface tension liquid-gas was 47.62 ± 0.88 mN/m.

What about the surface tension liquid-gas (313.15 K, m1 = 0.005) of the same compound?
The surface tension liquid-gas was 46.32 ± 0.61 mN/m.

And the surface tension liquid-gas (313.15 K, m1 = 0.006)?
The surface tension liquid-gas was 45.29 ± 0.52 mN/m.

What about the surface tension liquid-gas (313.15 K, m1 = 0.007) of the same compound?
The surface tension liquid-gas was 44.69 ± 0.42 mN/m.

And the surface tension liquid-gas (313.15 K, m1 = 0.009)?
The surface tension liquid-gas was 44.11 ± 0.4 mN/m.

And the surface tension liquid-gas (313.15 K, m1 = 0.011)?
Its surface tension liquid-gas is 44.31 ± 0.4 mN/m.

What about the surface tension liquid-gas (313.15 K, m1 = 0.013) of the same compound?
Its surface tension liquid-gas is 44.32 ± 0.4 mN/m.

And the surface tension liquid-gas (313.15 K, m1 = 0.015)?
The surface tension liquid-gas was 44.14 ± 0.4 mN/m.

What about the surface tension liquid-gas (313.15 K, m1 = 0.017) of the same compound?
The surface tension liquid-gas was 44.14 ± 0.4 mN/m.

What about the surface tension liquid-gas (318.15 K, m1 = 0.001) of the same compound?
The surface tension liquid-gas was 54.09 ± 1.1 mN/m.

What about the surface tension liquid-gas (318.15 K, m1 = 0.002) of the same compound?
The surface tension liquid-gas was 51.62 ± 0.89 mN/m.

What about the surface tension liquid-gas (318.15 K, m1 = 0.003) of the same compound?
The surface tension liquid-gas was 50.1 ± 0.79 mN/m.

What about the surface tension liquid-gas (318.15 K, m1 = 0.004) of the same compound?
Its surface tension liquid-gas is 48.2 ± 0.83 mN/m.

And the surface tension liquid-gas (318.15 K, m1 = 0.005)?
The surface tension liquid-gas was 46.44 ± 0.72 mN/m.

And the surface tension liquid-gas (318.15 K, m1 = 0.006)?
The surface tension liquid-gas was 45.21 ± 0.57 mN/m.

What about the surface tension liquid-gas (318.15 K, m1 = 0.007) of the same compound?
Its surface tension liquid-gas is 44.42 ± 0.43 mN/m.

And the surface tension liquid-gas (318.15 K, m1 = 0.009)?
Its surface tension liquid-gas is 44.04 ± 0.4 mN/m.

And the surface tension liquid-gas (318.15 K, m1 = 0.011)?
Its surface tension liquid-gas is 44.24 ± 0.4 mN/m.

What about the surface tension liquid-gas (318.15 K, m1 = 0.013) of the same compound?
Its surface tension liquid-gas is 44.24 ± 0.4 mN/m.

And the surface tension liquid-gas (318.15 K, m1 = 0.015)?
Its surface tension liquid-gas is 44.06 ± 0.4 mN/m.

And the surface tension liquid-gas (318.15 K, m1 = 0.017)?
Its surface tension liquid-gas is 44.26 ± 0.4 mN/m.
